In article PMC9781983, “Identification of Darunavir Derivatives for Inhibition of SARS-CoV-2 3CL^pro” (International Journal of Molecular Sciences, 2022):
Read-outs that look alike come from different tables or passages of the source.

What was measured:
[1] = biological target: T1, SARS-CoV-2 3CL^pro (Severe acute respiratory syndrome coronavirus 2, UniProt P0DTD1); test: biochemical; format: biochemical; settings: for IC50: FRET dose-response, 100 nM 3CL^pro pre-incubated 30 min at 30 °C, 10 µM substrate, read-out: IC50 against SARS-CoV-2 3CL^pro
[2] = biological target: Cathepsin L (Homo sapiens, UniProt P07711); test: Counter screen against Cathepsin L; format: biochemical; settings: dose-response, Figure S1
Cathepsin L, sequence (P07711 114-333): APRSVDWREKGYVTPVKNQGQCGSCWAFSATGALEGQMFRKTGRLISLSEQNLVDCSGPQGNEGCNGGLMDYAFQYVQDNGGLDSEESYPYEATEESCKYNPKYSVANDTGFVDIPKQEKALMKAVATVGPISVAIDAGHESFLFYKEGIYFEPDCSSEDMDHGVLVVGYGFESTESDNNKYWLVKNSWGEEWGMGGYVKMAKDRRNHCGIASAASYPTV

[3] = biological target: T1, SARS-CoV-2 3CL^pro; test: Bio-layer interferometry (BLI) kinetic binding assay; settings: for Binding to SARS-CoV-2 3CL^pro: 6.25 to 100 or 200 µM; for koff: read-out: Kdis
[4] = biological target: Norovirus RNA-dependent RNA polymerase (RdRp) (Norovirus, UniProt Q83883); test: BLI binding assay, non-specific binding control; settings: Figure S2
Norovirus RNA-dependent RNA polymerase (RdRp), sequence (Q83883 1282-1789): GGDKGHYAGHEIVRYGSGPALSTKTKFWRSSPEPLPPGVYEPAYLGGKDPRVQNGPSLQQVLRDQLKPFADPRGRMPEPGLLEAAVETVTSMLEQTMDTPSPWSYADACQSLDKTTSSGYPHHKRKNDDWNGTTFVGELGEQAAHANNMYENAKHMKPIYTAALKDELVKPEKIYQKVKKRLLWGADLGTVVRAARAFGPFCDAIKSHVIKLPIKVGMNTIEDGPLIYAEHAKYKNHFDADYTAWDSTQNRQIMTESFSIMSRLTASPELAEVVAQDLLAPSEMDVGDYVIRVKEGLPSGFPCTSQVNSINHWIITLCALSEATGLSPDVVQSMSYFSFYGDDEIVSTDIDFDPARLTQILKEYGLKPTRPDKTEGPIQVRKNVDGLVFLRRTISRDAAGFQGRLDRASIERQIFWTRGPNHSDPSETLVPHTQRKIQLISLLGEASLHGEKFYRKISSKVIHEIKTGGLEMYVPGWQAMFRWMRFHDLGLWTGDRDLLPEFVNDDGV

[5] = biological target: T1, SARS-CoV-2 3CL^pro; test: cell-based
[6] = in vitro; settings: human
[7] = system: rats; settings: taken orally, ref [7],[34]; cited from earlier work
[8] = single concentration of 20 μM, normalized to DMSO control

Structure (SMILES) | Hill slope ([1]; FRET dose-response curve) | IC50 [1] [µM] | Inhibition of 3CL^pro activity in primary screening [1, 8] | Inhibitory effect against Cathepsin L [2] | Binding to SARS-CoV-2 3CL^pro ([3]; BLI) | Kd ([3]; ForteBio Octet System) [µM] | kon ([3]; ForteBio Octet System) [M⁻¹ s⁻¹] | koff ([3]; ForteBio Octet System) [s⁻¹] | KD with Norovirus RdRp [4] | EC50 [5] [µM] | CC50 [6] [µM] | Hill slope [1] | Inhibition of 3CL^pro activity in primary screening [1] | median lethal dose [7] [mg/kg] | Kd ([3]; BLI) [µM]
COc1ccc(S(=O)(=O)N(CC(C)O)CC(O)C(Cc2ccccc2)NC(=O)c2ccc(O)c(O)c2)cc1 (stereo not drawn) [29#] | 1.78±0.32 | 6.3 | significant inhibition | very limited inhibitory effect | dose-dependent manner | 52.7 | 374 | 0.0197 | either a large KD value or a not-detected KD value | 8.9 | 24.8 |  |  |  | 
CC(C)CN(C[C@@H](O)[C@H](Cc1ccccc1)NC(=O)O[C@H]1CO[C@H]2OCC[C@H]21)S(=O)(=O)c1ccc(N)cc1 [Darunavir] |  |  | no inhibitory activity |  |  |  |  |  |  |  |  |  |  |  | 
O=c1c2ccccc2[se]n1-c1ccccc1 [Ebselen, ebselen, reference compound] |  |  |  |  |  |  |  |  |  |  |  | 1.91±0.22 | strongly inhibit | > 4600 | 
COc1ccc(S(=O)(=O)N(CC(C)O)CC(O)C(Cc2ccccc2)NC(=O)C2(O)CC(O)C(O)C(OC(=O)C=Cc3ccc(O)c(O)c3)C2)cc1 (stereo not drawn) [50#] | 1.93±0.30 | 3.5 | significant inhibition | very limited inhibitory effect | dose-dependent manner | 62.1 | 455 | 0.0282 | either a large KD value or a not-detected KD value | 13.5 | 49 |  |  |  | 62
